Columns and labels:
[1] = test system: HIF-1a in PC3 cells; experiment: HIF-1a induction; assay type: cell-based, human; details: normoxia or hypoxia
Protocol: Bharti, A. C. et al (2004) Blood 103, 3175-3184; Arbiser, J. L et al (1998) Mol. Med. 4, 376-383; Woods, A. et al (2003) Current Biology 13, 2004-2008; Shaw, R. J. et al (2004) PNAS 101, 3329-3335; Buzzai, M. et al (2005) Oncogene 24, 4165-4173). […] PC3 cells were treated with honokiol in normoxia (left) or hypoxia (right). In both cases, HIF-1a induction is dose dependent, and in the case of hypoxia, at least additive.

[2] = test system: IkBa and p65; experiment: Western blot / immunocytochemistry of TNF-induced IkBa and p65 events; assay type: cell-based, human
Protocol: Honokiol inhibits TNF-induced activation of NF-kB. H1299 cells were incubated with […] honokiol for 12 h, treated with 0.1 nM TNF for the indicated times, and then analyzed for NF-kB activation by EMSA. (B) H1299 cells (2×10^6/ml) were incubated with […] honokiol for 12 h at 37° C., treated with 0.1 nM TNF for the indicated times at 37° C., and then tested for IkBa (upper panel) in cytosolic fractions by Western blot analysis. Equal protein loading was evaluated by b-actin (lower panel). (C) Honokiol blocks the phosphorylation and ubiquitination (D) of IkBaby TNF. Cells were preincubated with […] honokiol for 12 h, incubated with […]/ml N-acetyl-leucyl-leucyl-norleucinal (ALLN) for 30 min, and then treated with 0.1 nM TNF for 10 min. Cytoplasmic extracts were fractionated and then subjected to Western blot analysis using phospho-specific anti-IkBa antibody. The same membrane was reblotted with anti-IkBa antibody. (E) Honokiol inhibits TNF-induced IkBakinase activity. H1299 cells (2×10^6/ml) were treated with […] honokiol for 12 h and then treated with 0.1 nM TNF for the indicated time intervals. Whole-cell extracts were prepared, and 200 mg of extract was immunoprecipitated with antibodies against IKKa and IKKb. The immune complex kinase assay was then performed as described in Materials and Methods. To examine the effect of honokiol on the level of expression of IKK proteins, 30 mg of whole-cell extract was analyzed on 10% SDS-PAGE, electrotransferred, and immunoblotted with the indicated antibodies as described in Materials and Methods. (F) Honokiol inhibits TNF-induced nuclear translocation of p65. H1299 cells (2×10^6/ml) were either untreated or pretreated with […] honokiol for 12 h at 37° C. and then treated with 0.1 nM TNF for the indicated times. Nuclear extracts were prepared and analyzed by Western blotting using antibodies against p65. (G) honokiol inhibits TNF-induced nuclear translocation of p65. H1299 cells (1×10^6/ml) were first treated with […] honokiol for 12 h at 37° C. and then exposed to 0.1 nM TNF. After cytospin, immunocytochemical analysis was performed as described in Materials and Methods. […] (H) Honokiol inhibits TNF-induced phosphorylation of p65. H1299 cells (2×10^6/ml) were incubated with 25 mM honokiol for 12 h and then treated with 0.1 nM TNF for the indicated times. The cytoplasmic and nuclear extracts were analyzed by Western blotting using antibodies against the phosphorylated form of p65.
Western blot analysis. […] Cytoplasmic protein […] was resolved on 10% SDS-PAGE gel, transferred to a nitrocellulose membrane, blocked with 5% non-fat milk, and probed with specific antibodies against IkBa, posphorylated IkBa, p65, and phosphorylated p65. To determine the expression of cyclin D1, COX-2, MMP-9, cIAP-1, TRAF1, Bcl-2, Bfl-1, cFLIP, and survivin in whole-cell extracts of treated cells (2×10^6 cells in 2 ml of medium), […] of protein was resolved on SDS-PAGE and probed by Western blot with specific antibodies as per the manufacturer's recommended protocol. The blots were washed, exposed to HRP-conjugated secondary antibodies for 1 h, and finally detected by ECL reagent (Amersham Pharmacia Biotechnology, Piscataway, N.J.). The bands were quantified using a Personal Densitometer Scan v1.30 using Imagequant software version 3.3 (Molecular Dynamics).
Immunolocalization of NF-kB p65. […]

[3] = test system: NF-kB in A293 cells; experiment: NF-kB-dependent reporter gene (SEAP) transcription; assay type: cell-based, human; details: A293, 25 mM (printed) honokiol 12 h
Protocol: A293 cells were transiently transfected with an NF-kB-containing plasmid linked to the SEAP gene and then treated with the indicated concentrations of honokiol. After 24 h in culture with 0.1 nM TNF, cell supernatants were collected and assayed for SEAP activity. Results are expressed as fold activity over the activity of the vector control. […] A293 cells were transiently transfected with the indicated plasmids along with an NF-kB-containing plasmid linked to the SEAP gene and then left either untreated or treated with 25 mM honokiol for 12 h. Cell supernatants were assayed for secreted alkaline phosphatase activity. Results are expressed as fold activity over the activity of the vector control. Bars indicate standard deviation.
NF-kB-dependent reporter gene transcription. The effect of honokiol on TNF-induced NF-kB dependent reporter gene transcription in A293 cells was measured as previously described (Shishodia, S., et al. 2003 Cancer Res. 63:4375-4383).
To test the effect of honokiol on NF-kB-dependent gene transcription, cells were transiently transfected with the NF-kB-regulated SEAP reporter construct and then stimulated with TNF.

[4] = test system: MCF-7 cells; experiment: Apoptosis analysis (annexin V and PI); assay type: cell-based; details: MCF-7, 60 μM, 24 hours (control 1%±0.5%)
Protocol: Apoptosis analysis: 5×10^6 cells were placed in the appropriate culture media containing 10% FCS, and treated with either control vehicle or various concentrations of HNK, as indicated for 24 h. Following treatment, cells were harvested, and stained with PI and Annexin V, using the Annexin V-PE Apoptosis Detection Kit I (BD Pharmingen, San Diego, Calif.) according to the manufacturer protocol. Flow cytometry was performed at the Flow Cytometry Core facility of Cedars-Sinai Medical Center, using FACScan (Becton Dickinson, Franklin Lakes, N.J.). For studies using z-VAD-fmk to inhibit caspase activity, 5×10^6 cells were incubated with 50 μM z-VAD-fmk for 60 minutes prior to addition of HNK.
HNK induces apoptosis in breast cancer cell lines. […] The ability of HNK to induce apoptosis and cell death in breast cancer cell lines was investigated. MCF-7 cells were treated with HNK (60 μM for six or 24 hours) and apoptosis and cell death were assessed using annexin V and PI staining (FIG. 5 A). […] Upregulation of BAX was also noticed, (85% increase at 40 μM compared to control, as analyzed by densitometry) but no significant changes in BCL-2 or BAD levels were observed. Only partial inhibition of apoptosis was observed following pretreatment with z-VAD-fmk.

[5] = test system: lymph node cultures; experiment: antigen recall lymph node cultures from treated mice; assay type: in vivo, C57BL/6 or mCD40-LMP1 Tg mice; details: honokiol 3 mg/day, day 21-70 post-immunization
Protocol: Mice were assessed 70 days post-immunization with CII/CF or CFA only (or naïve). Some mice received honokiol (3 mg/day) from day 21-70 post-immunization.

C=CCc1ccc(O)c(-c2ccc(O)c(CC=C)c2)c1 [HNK, Honokiol]
HIF-1a induction [1]: activated HIF-1a in prostate cancer cells in a dose dependent manner | TNF-induced phosphorylation of p65 [2]: suppressed p65 phosphorylation almost completely | TNF-dependent IkBa degradation ([2]; 25 mM (printed) honokiol 12 h, 0.1 nM TNF): TNF had no effect on IkBa degradation | TNF-induced nuclear translocation of p65 ([2]; Western blot analysis): suppressed nuclear translocation of the p65 subunit of NF-kB | TNF-induced IkBa phosphorylation ([2]; with ALLN, 0.1 nM TNF 10 min): completely suppressed it | TNF-induced IkBa ubiquitination ([2]; with ALLN, 0.1 nM TNF 10 min): completely suppressed it | SEAP expression induced by TNFR1, TRADD, TRAF2, NIK, IKKb, and p65 plasmids [3]: suppressed SEAP expression in all cells except those transfected with p65 | annexin V-positive, PI-negative cells [4]: 16%±3% | proliferation and cytokine production of antigen recall lymph node cultures [5]: decreased proliferation and IFN-g production, with unaltered IL-10 production

Reference: patent publication US20080300298A1, “Honokiol Derivates For the Treatment of Proliferative Disorders” (priority 2005, published 2008)
